Columns and labels:
[1] = refractive index (Na D-line) (dimensionless); conditions: 101.33 kPa, Liquid, Standard Abbe refractometry
[2] = for mass density / kinematic viscosity: 101.33 kPa, Liquid; for mass density: Vibrating tube method; for surface tension liquid-gas / kinematic viscosity: Surface laser light scattering (SLLS)

CCCCCCC(=O)OC [methyl heptanoate]
Conditions | kinematic viscosity [m2/s] | mass density [kg/m3] | refractive index | surface tension liquid-gas [mN/m]
[1], 278.15 K | – | – | 1.41865 | –
[1], 283.15 K | – | – | 1.41643 | –
[1], 288.15 K | – | – | 1.41421 | –
[1], 293.15 K | – | – | 1.41199 | –
[1], 298.15 K | – | – | 1.40976 | –
[1], 303.15 K | – | – | 1.40753 | –
[1], 308.15 K | – | – | 1.4053 | –
[1], 313.15 K | – | – | 1.40301 | –
[1], 318.15 K | – | – | 1.4007 | –
[1], 323.15 K | – | – | 1.39841 | –
[1], 328.15 K | – | – | 1.39614 | –
[1], 333.15 K | – | – | 1.39389 | –
[1], 338.15 K | – | – | 1.39167 | –
[1], 343.15 K | – | – | 1.38946 | –
[1], 348.15 K | – | – | 1.38724 | –
[1], 353.15 K | – | – | 1.38501 | –
[1], 358.15 K | – | – | 1.38276 | –
[2], 293.15 K | – | 879.29 | – | –
[2], 298.13 K | 1.22e-06 | – | – | 24.75
[2], 303.15 K | – | 870.75 | – | –
[2], 313.15 K | – | 861.6 | – | –
[2], 323.15 K | – | 852.39 | – | –
[2], 323.17 K | 8.92e-07 | – | – | 23
[2], 333.15 K | – | 843.15 | – | –
[2], 343.15 K | – | 833.87 | – | –
[2], 348.19 K | 6.79e-07 | – | – | 21.02
[2], 353.15 K | – | 824.55 | – | –
[2], 363.15 K | – | 814.17 | – | –
[2], 373.15 K | – | 805.69 | – | –
[2], 373.26 K | 5.32e-07 | – | – | 18.72
[2], 383.15 K | – | 796.11 | – | –
[2], 393.15 K | – | 786.44 | – | –
[2], 398.29 K | 4.34e-07 | – | – | 16.66
[2], 403.15 K | – | 776.63 | – | –
[2], 413.15 K | – | 766.7 | – | –
[2], 423.15 K | – | 756.62 | – | –
[2], 423.26 K | 3.66e-07 | – | – | 14.43
[2], 433.15 K | – | 746.31 | – | –
[2], 448.29 K | 3.14e-07 | – | – | 12.33

CCCCCCCCCC(=O)OCC [ethyl decanoate]
Conditions | kinematic viscosity [m2/s] | mass density [kg/m3] | refractive index | surface tension liquid-gas [mN/m]
[1], 278.15 K | – | – | 1.43213 | –
[1], 283.15 K | – | – | 1.43 | –
[1], 288.15 K | – | – | 1.42789 | –
[1], 293.15 K | – | – | 1.42577 | –
[1], 298.15 K | – | – | 1.42366 | –
[1], 303.15 K | – | – | 1.42155 | –
[1], 308.15 K | – | – | 1.41944 | –
[1], 313.15 K | – | – | 1.41729 | –
[1], 318.15 K | – | – | 1.41512 | –
[1], 323.15 K | – | – | 1.41297 | –
[1], 328.15 K | – | – | 1.41084 | –
[1], 333.15 K | – | – | 1.40873 | –
[1], 338.15 K | – | – | 1.40661 | –
[1], 343.15 K | – | – | 1.40451 | –
[1], 348.15 K | – | – | 1.40241 | –
[1], 353.15 K | – | – | 1.40034 | –
[1], 358.15 K | – | – | 1.39826 | –
[2], 293.15 K | – | 864.08 | – | –
[2], 298.13 K | 2.2e-06 | – | – | 23.87
[2], 303.15 K | – | 855.82 | – | –
[2], 313.15 K | – | 847.62 | – | –
[2], 323.11 K | 1.59e-06 | – | – | 22.57
[2], 323.15 K | – | 839.41 | – | –
[2], 333.15 K | – | 830.71 | – | –
[2], 343.15 K | – | 822.79 | – | –
[2], 348.1 K | 1.22e-06 | – | – | 21.38
[2], 353.15 K | – | 814.9 | – | –
[2], 363.15 K | – | 806.72 | – | –
[2], 373.15 K | – | 798.5 | – | –
[2], 373.17 K | 9.55e-07 | – | – | 19.81
[2], 383.15 K | – | 790.26 | – | –
[2], 393.15 K | – | 781.97 | – | –
[2], 398.16 K | 7.48e-07 | – | – | 18.26
[2], 403.15 K | – | 773.63 | – | –
[2], 413.15 K | – | 765.29 | – | –
[2], 423.12 K | 6.18e-07 | – | – | 16.8
[2], 423.15 K | – | 756.81 | – | –
[2], 433.15 K | – | 748.26 | – | –
[2], 443.15 K | – | 739.7 | – | –
[2], 448.1 K | 4.92e-07 | – | – | 14.86
[2], 453.15 K | – | 731.01 | – | –

CCCCCC(=O)OCC [ethyl hexanoate]
Conditions | kinematic viscosity [m2/s] | mass density [kg/m3] | refractive index | surface tension liquid-gas [mN/m]
[1], 278.15 K | – | – | 1.41438 | –
[1], 283.15 K | – | – | 1.4121 | –
[1], 288.15 K | – | – | 1.40982 | –
[1], 293.15 K | – | – | 1.40753 | –
[1], 298.15 K | – | – | 1.40525 | –
[1], 303.15 K | – | – | 1.40295 | –
[1], 308.15 K | – | – | 1.40063 | –
[1], 313.15 K | – | – | 1.39829 | –
[1], 318.15 K | – | – | 1.39594 | –
[1], 323.15 K | – | – | 1.3936 | –
[1], 328.15 K | – | – | 1.39128 | –
[1], 333.15 K | – | – | 1.38897 | –
[1], 338.15 K | – | – | 1.38667 | –
[1], 343.15 K | – | – | 1.38438 | –
[1], 348.15 K | – | – | 1.3821 | –
[1], 353.15 K | – | – | 1.37983 | –
[1], 358.15 K | – | – | 1.37754 | –
[2], 293.15 K | – | 871.07 | – | –
[2], 298.26 K | 1.13e-06 | – | – | 24.65
[2], 303.15 K | – | 861.61 | – | –
[2], 313.15 K | – | 851.2 | – | –
[2], 323.06 K | 8.14e-07 | – | – | 22.27
[2], 323.15 K | – | 842.71 | – | –
[2], 333.15 K | – | 833.25 | – | –
[2], 343.15 K | – | 823.72 | – | –
[2], 348.04 K | 6.25e-07 | – | – | 20.08
[2], 353.15 K | – | 814.13 | – | –
[2], 363.15 K | – | 804.45 | – | –
[2], 372.96 K | 5e-07 | – | – | 17.81
[2], 373.15 K | – | 794.69 | – | –
[2], 383.15 K | – | 784.83 | – | –
[2], 393.15 K | – | 774.87 | – | –
[2], 397.73 K | 4.11e-07 | – | – | 15.68
[2], 403.15 K | – | 764.77 | – | –
[2], 413.15 K | – | 754.53 | – | –
[2], 422.94 K | 3.46e-07 | – | – | 13.51
[2], 423.15 K | – | 744.07 | – | –
[2], 447.88 K | 3.03e-07 | – | – | 11.43

CCCCCCC(=O)OCC [ethyl heptanoate]
Conditions | kinematic viscosity [m2/s] | mass density [kg/m3] | refractive index | surface tension liquid-gas [mN/m]
[1], 278.15 K | – | – | 1.42006 | –
[1], 283.15 K | – | – | 1.41784 | –
[1], 288.15 K | – | – | 1.41562 | –
[1], 293.15 K | – | – | 1.41341 | –
[1], 298.15 K | – | – | 1.41119 | –
[1], 303.15 K | – | – | 1.40896 | –
[1], 308.15 K | – | – | 1.40673 | –
[1], 313.15 K | – | – | 1.40445 | –
[1], 318.15 K | – | – | 1.40216 | –
[1], 323.15 K | – | – | 1.39988 | –
[1], 328.15 K | – | – | 1.39761 | –
[1], 333.15 K | – | – | 1.39535 | –
[1], 338.15 K | – | – | 1.39311 | –
[1], 343.15 K | – | – | 1.39088 | –
[1], 348.15 K | – | – | 1.38866 | –
[1], 353.15 K | – | – | 1.38645 | –
[1], 358.15 K | – | – | 1.38421 | –
[2], 293.15 K | – | 869.42 | – | –
[2], 298.25 K | 1.33e-06 | – | – | 24.88
[2], 303.15 K | – | 860.36 | – | –
[2], 313.15 K | – | 851.32 | – | –
[2], 323.03 K | 9.55e-07 | – | – | 23.07
[2], 323.15 K | – | 842.26 | – | –
[2], 333.15 K | – | 833.07 | – | –
[2], 343.15 K | – | 824.1 | – | –
[2], 347.8 K | 7.3e-07 | – | – | 20.71
[2], 353.15 K | – | 814.99 | – | –
[2], 363.15 K | – | 805.81 | – | –
[2], 372.91 K | 5.73e-07 | – | – | 18.61
[2], 373.15 K | – | 796.55 | – | –
[2], 383.15 K | – | 787.24 | – | –
[2], 393.15 K | – | 777.81 | – | –
[2], 397.51 K | 4.7e-07 | – | – | 16.27
[2], 403.15 K | – | 768.3 | – | –
[2], 413.15 K | – | 758.65 | – | –
[2], 421.88 K | 3.95e-07 | – | – | 14.43
[2], 423.15 K | – | 748.89 | – | –
[2], 433.15 K | – | 738.95 | – | –
[2], 443.15 K | – | 728.84 | – | –
[2], 448 K | 3.39e-07 | – | – | 12.31

CCCCCCCCCCCC [dodecane]
[2]
Conditions | kinematic viscosity [m2/s] | mass density [kg/m3] | surface tension liquid-gas [mN/m]
293.15 K | – | 748.81 | –
298.16 K | 1.76e-06 | – | 23.37
303.15 K | – | 741.42 | –
313.15 K | – | 734.08 | –
323.15 K | – | 726.74 | –
323.23 K | 1.25e-06 | – | 21.9
333.15 K | – | 719.38 | –
343.15 K | – | 711.32 | –
348.21 K | 9.24e-07 | – | 20.09
353.15 K | – | 704.62 | –
363.15 K | – | 697.21 | –
373.15 K | – | 689.75 | –
373.29 K | 7.24e-07 | – | 18.02
383.15 K | – | 682.25 | –
393.15 K | – | 674.68 | –
398.25 K | 5.87e-07 | – | 16.1
403.15 K | – | 667.04 | –
413.15 K | – | 659.32 | –
423.15 K | – | 651.53 | –
423.26 K | 4.89e-07 | – | 14.25
433.15 K | – | 643.6 | –
443.15 K | – | 635.55 | –
448.27 K | 4.16e-07 | – | 12.32
453.15 K | – | 627.38 | –
463.15 K | – | 619.09 | –
473.15 K | – | 610.6 | –

— the NIST ThermoML archive (doi:10.1016/j.jct.2019.02.025)
